Test results: patent US4265912A, “Glaucine lactate salts” (priority 1979, dated 1981)
Where a name gives a salt, the structure may show the parent alone. Read-outs that look alike come from different tables or passages of the source.

Key:
[1] = test system: mice; format: in vivo; details: for stimulation and Straub tail: mouse, in vivo, 100 mg/kg; for mice jumping after naloxone: naloxone 100 mg/kg intraperitoneal after increasing doses on two consecutive days
Procedure: Physical dependency liability was evaluated in mice by the procedure of Saelens, et al., Arch. Int. Pharmacodynam, 190:213-218, 1971. In this procedure, mice are administered increasing doses of a test compound at intervals on two consecutive days. The last dosage on the second day is followed by intraperitoneal injection of the morphine antagonist, naloxone, at a dosage of 100 mg/kg, and the mice are observed for characteristic jumping behaviour indicative of opiate withdrawals or morphine antagonism.

[2] = format: physicochemical; details: syrup; for percent of original concentration retained after one month: 0.6 percent d,l-glaucine lactate, 0.2 percent codeine phosphate or d,l-glaucine hydrobromide, 43800 min; for Percentage Remaining after 3 months at 40° C. / Percentage Remaining after 3 months at 55° C. / Percentage Remaining after 3 months at Ambient: 131400 min
Procedure: Stability of d,l-glaucine lactate was examined in the syrup vehicle of Example 4.
Syrups containing codeine phosphate, 0.2 percent, contained 97.5, 104.5 or 100 percent, respectively, after one month at ambient temperature, 40° C. or 55° C. […] After three months, the percentage amount of antitussive agent remaining was as shown below

[3] = solubility in cough syrup vehicle; format: physicochemical; details: cough syrup vehicle of Example 4
Procedure: A cough syrup vehicle formulation was prepared containing the following pharmaceutically-acceptable excipients: […]

[4] = stability of syrup with continuous exposure to light in amber and flint glass bottles; format: physicochemical; details: for assay after one month with continuous exposure to light, amber glass bottles / assay after one month with continuous exposure to light, flint glass bottles: ambient temperature, about 2000 Foot-candles, 24 hours/day, 43800 min; for assay after one month with continuous exposure to light, flint glass bottles: transparent (flint) glass
Procedure: In a procedure similar to that of Example 5, syrup formulations were prepared, placed in amber glass bottles and transparent (flint) glass bottles, and held under conditions of ambient temperature with continuous exposure to light. (About 2000 Foot-candles of combined fluorescent and incandescent light, for 24 hours/day.)

[5] = test system: guinea pigs (coughing, citric acid aerosol); assay: antitussive activity, citric acid aerosol test, intraperitoneal injection; format: in vivo; details: Cavia porcellus, ip
Procedure: Separate groups of guinea pigs were orally administered various doses of a test compound, or distilled water for a control group. One hour after oral dosing, the guinea pigs were exposed to a 5 percent aerosol of citric acid for a 10 minute test period. The number of cough responses produced during the last five minutes of exposure to the citric acid aerosol was recorded and the dosage effect to suppress coughing in 50 percent of the guinea pigs (ED50) was calculated. An antitussive effect was recorded for a guinea pig when its total number of coughs during the 5 minute test period were at least two standard deviation units below the mean number of coughs per guinea pig in the control group. […]; In an operation similar to that of Example 2, test compounds were administered to guinea pigs by intraperitoneal injection, with one group of guinea pigs receiving distilled water as a control. ED50 's were calculated for antitussive activity in the citric acid aerosol test as described in Example 2. […];

[6] = test system: mouse (phenyl-p-quinone writhing); assay: analgesic activity, phenyl-p-quinone mouse writhing test; format: in vivo; details: oral, 30 minutes prior to phenyl-p-quinone challenge
Procedure: Test compounds were evaluated for analgesic activity in the phenyl-p-quinone mouse writhing test of Hendershot & Forsaith, J. Pharmacol. Exptl. Therap. 125(3) 237 (1959). The test compounds were administered orally 30 minutes prior to the phenyl-p-quinone challenge.

[7] = test system: guinea pigs (coughing, citric acid aerosol); assay: antitussive activity, citric acid aerosol test, oral; format: in vivo; details: Cavia porcellus, 1 h, 5 percent citric acid aerosol one hour after dosing
Procedure: Separate groups of guinea pigs were orally administered various doses of a test compound, or distilled water for a control group. One hour after oral dosing, the guinea pigs were exposed to a 5 percent aerosol of citric acid for a 10 minute test period. The number of cough responses produced during the last five minutes of exposure to the citric acid aerosol was recorded and the dosage effect to suppress coughing in 50 percent of the guinea pigs (ED50) was calculated. An antitussive effect was recorded for a guinea pig when its total number of coughs during the 5 minute test period were at least two standard deviation units below the mean number of coughs per guinea pig in the control group. […];

[8] = stability of crystalline d,l-glaucine lactate on storage; format: physicochemical; details: crystalline solid, 2 months storage at 40° C., read-out: percent of original assay retained, crystalline solid

Row | Structure (SMILES) | stimulation and Straub tail [1] | mice jumping after naloxone [1] | ED50 [5] | percent of original concentration retained after one month ([2]; 40° C.) | percent of original concentration retained after one month ([2]; 55° C.) | percent of original concentration retained after one month ([2]; ambient temperature) | Percentage Remaining after 3 months at 40° C. ([2]; 40° C.) | Percentage Remaining after 3 months at 55° C. ([2]; 55° C.) | Percentage Remaining after 3 months at Ambient [2] | ED50 [6] | ED50 [7] | assay after one month with continuous exposure to light, amber glass bottles [4] | assay after one month with continuous exposure to light, flint glass bottles [4] | other results
1 | COc1cc2c(cc1OC)-c1c(OC)c(OC)cc3c1C(C2)N(C)CC3 (racemic) [d,l-Glaucine lactate (2:3)] | no Straub tail | no jumping behaviour in any of the ten mice | – | – | – | – | – | – | – | – | – | – | – | –
2 | COc1cc2c(cc1OC)-c1c(OC)c(OC)cc3c1C(C2)N(C)CC3 (racemic) [d,l-glaucine hydrobromide] | – | – | – | – | – | – | – | – | – | – | – | – | – | percent of original concentration retained after one month ([2]; 40° C., hydrobromide): 96%; percent of original concentration retained after one month ([2]; 55° C., hydrobromide): 89.5%; percent of original concentration retained after one month ([2]; ambient temperature, hydrobromide): 99%; Percentage Remaining after 3 months at 40° C. ([2]; 40° C., listed as d,l-Glaucine . HBr, hydrobromide): 93.3%; Percentage Remaining after 3 months at 55° C. ([2]; 55° C., listed as d,l-Glaucine . HBr, hydrobromide): 91.4%; Percentage Remaining after 3 months at Ambient ([2]; listed as d,l-Glaucine . HBr, hydrobromide): 100.8%; solubility in cough syrup vehicle ([3]; hydrobromide): 0.3%; solubility in cough syrup vehicle per 5 milliliter dosage unit ([3]; hydrobromide): about 15 milligrams per 5 milliliter dosage unit; assay after one month with continuous exposure to light, amber glass bottles ([4]; hydrobromide): 84%; assay after one month with continuous exposure to light, flint glass bottles ([4]; hydrobromide): 74.5%
3 | COc1cc2c(cc1OC)-c1c(OC)c(OC)cc3c1C(C2)N(C)CC3 (racemic) [d,l-glaucine lactate] | – | – | 7.9 mg/kg | 100.6% | 96.7% | 98.8% | 97.0% | 97.4% | 104.1% | 25.5 mg/kg | 63.4 mg/kg | 94% | 80.6% | solubility in cough syrup vehicle [3]: 2%; solubility in cough syrup vehicle per 5 milliliter dosage unit [3]: about 100 milligrams per 5 milliliter dosage unit; remaining at 1460 h [8]: > 99%
4 | COc1ccc2c3c1O[C@H]1[C@@H](O)C=C[C@H]4[C@@H](C2)N(C)CC[C@@]341 [codeine phosphate] | Straub tail and stimulation | 2 of 6 | 10.9 mg/kg | 104.5% | 100% | 97.5% | 101.1% | 88.4% | 101.3% | 21.2 mg/kg | 86.6 mg/kg | 100% | 100% | total number of jumps after naloxone ([1]; naloxone 100 mg/kg intraperitoneal): 23 jumps total; stability in both types of container ([4]; amber and flint glass, light, one month): appeared stable in both types of container
5 | COc1cc2c(cc1OC)-c1c(OC)c(OC)cc3c1[C@H](C2)N(C)CC3 [d-glaucine hydrobromide] | – | – | 10 mg/kg | – | – | – | – | – | – | 34 mg/kg | 89 mg/kg | – | – | –
